Reference: patent US20260098046A1, “RIFABUTIN ANALOGS FOR THE TREATMENT OF DISEASE” (BIOVERSYS AG, priority 2022, published 2026)
Values after ≈ are worked out from the molar mass of the structure shown. Read-outs that look alike come from different tables or passages of the source.

Assays:
Assay type in all cases: cell-based
M. kansasii (ATCC12478) = assay: MIC by broth microdilution (CLSI) against M. kansasii; details: Mycobacterium kansasii, 168 h, cation adjusted Mueller Hinton broth + ADC (5%), 37° C. for 7 days (at least), read-out: In vitro activity (MIC) M. kansasii
Protocol: (§1) MIC values were determined by broth microdilution method according to the CLSI guideline. Unless otherwise mentioned, MIC against A. baumannii was performed in RPMI medium supplemented with 10% FCS. MIC against M. abscessus was performed in Middlebrook 7H9 broth supplemented with Middlebrook ADC growth supplement (10%). All other MIC were performed in standard cation adjusted Mueller Hinton broth, supplemented with Middlebrook ADC growth supplement (5%) for the slow growing mycobacteria (M. xenopi, M. kansasii and M. avium).
(§2) The following procedure applies to all species tested, except for M. xenopi. From a fresh culture plate (from overnight to several days depending on the bacteria), cells were resuspended in 0.9% (w/v) saline solution and bacterial inoculum was prepared in the respective testing medium with 5×10^5 CFU/mL. For M. xenopi, the inoculum was prepared from a fresh liquid culture (7H9+ADC). The appropriate volumes of a 10 mg/mL compound solution were directly dispensed in the 96-well assay plate using a digital dispenser to create two-fold dilution series from 32 to 0.002 μg/mL final concentration for A. baumannii and S. aureus; from 16 to 0.016 μg/mL for M. abscessus and M. avium; and from 1 to 6×10^−5 μg/mL for M. kansasii and M. xenopi. 100 μL of bacterial suspension was finally added to the compounds. Plates were covered and incubated without shaking at 35° C. for 20 hours for A. baumanii and S. aureus; at 30° C. for 4 days for M. abscessus; and at 37° C. for 7 days (at least) for M. kansasii (covered with aluminum foil to avoid light exposure), M. avium and M. xenopi. Every experiment contained an antibiotic as quality control. MIC was determined visually as the lowest concentration of a compound that prevents visible growth of the bacteria.
(§3) The in vitro activity of compounds described herein was determined against S. aureus (UAMS-1625 strain), A. baumannii (HUMC1 strain), M. abscessus (ATCC 19977), M. kansasii (ATCC12478), M. avium (ATCC25291), and M. xenopi (ATCC19250).

M. xenopi (ATCC19250) = assay: MIC by broth microdilution (CLSI) against M. xenopi; details: Mycobacterium xenopi, 168 h, cation adjusted Mueller Hinton broth + ADC (5%), 37° C. for 7 days (at least), read-out: In vitro activity (MIC) M. xenopi
Protocol: as §1, §2, §3

[1] = tested on: A. baumannii (HUMC1 strain); assay: MIC by broth microdilution (CLSI) against A. baumannii; details: Acinetobacter baumannii, RPMI medium supplemented with 10% FCS, 35° C. for 20 hours, read-out: In vitro activity (MIC) A. baumannii
Protocol: as §1, §2, §3

M. avium (ATCC25291) = assay: MIC by broth microdilution (CLSI) against M. avium; details: Mycobacterium avium, 168 h, cation adjusted Mueller Hinton broth + ADC (5%), 37° C. for 7 days (at least), read-out: In vitro activity (MIC) M. avium
Protocol: as §1, §2, §3

[2] = tested on: M. abscessus (ATCC 19977); assay: MIC by broth microdilution (CLSI) against M. abscessus; details: Mycobacteroides abscessus
Protocol: as §1, §2, §3

[3] = tested on: S. aureus (UAMS-1625 strain); assay: MIC by broth microdilution (CLSI) against S. aureus; details: Staphylococcus aureus, 20 h, read-out: In vitro activity (MIC) S. aureus
Protocol: as §1, §2, §3

[4] = ATCC19977, 96 h, ATCC 19977, Middlebrook 7H9 broth + ADC (10%), 30° C. for 4 days, read-out: In vitro activity (MIC) M. abscessus

Compound: CO[C@H]1/C=C/O[C@@]2(C)Oc3c(C)c(O)c4c(c3C2=O)C2=NC3(CCN(CC(C)C)CC3)NC2=C(NC(=O)/C(C)=C\C=C\[C@H](C)[C@H](O)[C@@H](C)[C@@H](O)[C@@H](C)[C@H](OC(=O)Cn2cc(CCc3ccccc3)nn2)[C@@H]1C)C4=O [Compound 9]
- MIC (M. kansasii (ATCC12478)): 0.002 µg/mL
- MIC (M. xenopi (ATCC19250)): 0.03 µg/mL
- MIC [1]: 0.03 µg/mL (≈ 0.0295 µM)
- MIC (M. avium (ATCC25291)): 0.06 µg/mL
- MIC [2, 4]: 0.25 µg/mL
- MIC [3]: 0.5 µg/mL (≈ 0.491 µM)

Compound: CO[C@H]1/C=C/O[C@@]2(C)Oc3c(C)c(O)c4c(c3C2=O)C2=NC3(CCN(CC(C)C)CC3)NC2=C(NC(=O)/C(C)=C\C=C\[C@H](C)[C@H](O)[C@@H](C)[C@@H](O)[C@@H](C)[C@H](OC(=O)Cn2cc(CN(C)Cc3ccccc3)nn2)[C@@H]1C)C4=O [Compound 12]
- MIC (M. kansasii (ATCC12478)): 0.004 µg/mL
- MIC (M. xenopi (ATCC19250)): 0.03 µg/mL
- MIC [1]: 0.008 µg/mL (≈ 0.00764 µM)
- MIC (M. avium (ATCC25291)): 0.03 µg/mL
- MIC [2, 4]: 0.25 µg/mL
- MIC [3]: 0.125 µg/mL (≈ 0.119 µM)

Compound: CO[C@H]1/C=C/O[C@@]2(C)Oc3c(C)c(O)c4c(c3C2=O)C2=NC3(CCN(CC(C)C)CC3)NC2=C(NC(=O)/C(C)=C\C=C\[C@H](C)[C@H](O)[C@@H](C)[C@@H](O)[C@@H](C)[C@H](OC(=O)Cn2cc(C3CCCCC3)nn2)[C@@H]1C)C4=O [Compound 26]
- MIC (M. kansasii (ATCC12478)): 0.002 µg/mL
- MIC (M. xenopi (ATCC19250)): 0.03 µg/mL
- MIC [1]: 0.016 µg/mL (≈ 0.0161 µM)
- MIC (M. avium (ATCC25291)): 0.03 µg/mL
- MIC [2, 4]: 0.25 µg/mL
- MIC [3]: 0.125 µg/mL (≈ 0.125 µM)

Compound: CO[C@H]1/C=C/O[C@@]2(C)Oc3c(C)c(O)c4c(c3C2=O)C2=NC3(CCN(CC(C)C)CC3)NC2=C(NC(=O)/C(C)=C\C=C\[C@H](C)[C@H](O)[C@@H](C)[C@@H](O)[C@@H](C)[C@H](OC(C)=O)[C@@H]1C)C4=O [Rifabutin, rifabutin]
- MIC (M. kansasii (ATCC12478)): 0.001 µg/mL
- MIC (M. xenopi (ATCC19250)): 0.03 µg/mL
- MIC [1]: ≤ 0.002 µg/mL
- MIC (M. avium (ATCC25291)): 0.125 µg/mL
- MIC [2, 4]: 8 µg/mL
- MIC ([2]; ATCC19977, tested M. abscessus strains, read-out: MIC value on M. abscessus): 8 µg/mL (≈ 9.44 µM)
- MIC [3]: 0.016 µg/mL (≈ 0.0189 µM)
